Experimental findings from ChEMBL document CHEMBL1201862, “PubChem BioAssay data set” (2004) are described below.

In general, EC50 refers to the concentration giving half of the maximal effect. As usually defined, the IC50 is the concentration that inhibits the measured activity by half.

Each structure is given as a SMILES string. Calls of active or inactive are those of the source. Bounds are passed on as bounds.

Test [1] deals with Peroxisome proliferator-activated receptor gamma/Nuclear receptor coactivator 3 (Homo sapiens, UniProt P37231). In kind it is functional.
Peroxisome proliferator-activated receptor gamma/Nuclear receptor coactivator 3, sequence (P37231 whole entry): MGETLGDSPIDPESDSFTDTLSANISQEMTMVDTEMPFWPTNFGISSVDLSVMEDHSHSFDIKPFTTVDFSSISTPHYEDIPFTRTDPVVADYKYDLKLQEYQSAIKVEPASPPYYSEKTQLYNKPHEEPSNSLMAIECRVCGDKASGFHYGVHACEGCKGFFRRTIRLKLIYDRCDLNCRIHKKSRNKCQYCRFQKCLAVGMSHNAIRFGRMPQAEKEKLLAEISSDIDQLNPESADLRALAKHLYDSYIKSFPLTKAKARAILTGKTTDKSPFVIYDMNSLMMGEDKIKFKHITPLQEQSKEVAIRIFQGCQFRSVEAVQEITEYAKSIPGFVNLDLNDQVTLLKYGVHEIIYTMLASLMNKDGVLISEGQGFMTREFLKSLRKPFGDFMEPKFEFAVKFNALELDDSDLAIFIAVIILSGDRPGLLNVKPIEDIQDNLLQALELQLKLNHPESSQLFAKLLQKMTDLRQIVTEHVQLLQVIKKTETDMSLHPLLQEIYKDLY
Peroxisome proliferator-activated receptor gamma/Nuclear receptor coactivator 3, sequence (Q9Y6Q9 whole entry, further chain): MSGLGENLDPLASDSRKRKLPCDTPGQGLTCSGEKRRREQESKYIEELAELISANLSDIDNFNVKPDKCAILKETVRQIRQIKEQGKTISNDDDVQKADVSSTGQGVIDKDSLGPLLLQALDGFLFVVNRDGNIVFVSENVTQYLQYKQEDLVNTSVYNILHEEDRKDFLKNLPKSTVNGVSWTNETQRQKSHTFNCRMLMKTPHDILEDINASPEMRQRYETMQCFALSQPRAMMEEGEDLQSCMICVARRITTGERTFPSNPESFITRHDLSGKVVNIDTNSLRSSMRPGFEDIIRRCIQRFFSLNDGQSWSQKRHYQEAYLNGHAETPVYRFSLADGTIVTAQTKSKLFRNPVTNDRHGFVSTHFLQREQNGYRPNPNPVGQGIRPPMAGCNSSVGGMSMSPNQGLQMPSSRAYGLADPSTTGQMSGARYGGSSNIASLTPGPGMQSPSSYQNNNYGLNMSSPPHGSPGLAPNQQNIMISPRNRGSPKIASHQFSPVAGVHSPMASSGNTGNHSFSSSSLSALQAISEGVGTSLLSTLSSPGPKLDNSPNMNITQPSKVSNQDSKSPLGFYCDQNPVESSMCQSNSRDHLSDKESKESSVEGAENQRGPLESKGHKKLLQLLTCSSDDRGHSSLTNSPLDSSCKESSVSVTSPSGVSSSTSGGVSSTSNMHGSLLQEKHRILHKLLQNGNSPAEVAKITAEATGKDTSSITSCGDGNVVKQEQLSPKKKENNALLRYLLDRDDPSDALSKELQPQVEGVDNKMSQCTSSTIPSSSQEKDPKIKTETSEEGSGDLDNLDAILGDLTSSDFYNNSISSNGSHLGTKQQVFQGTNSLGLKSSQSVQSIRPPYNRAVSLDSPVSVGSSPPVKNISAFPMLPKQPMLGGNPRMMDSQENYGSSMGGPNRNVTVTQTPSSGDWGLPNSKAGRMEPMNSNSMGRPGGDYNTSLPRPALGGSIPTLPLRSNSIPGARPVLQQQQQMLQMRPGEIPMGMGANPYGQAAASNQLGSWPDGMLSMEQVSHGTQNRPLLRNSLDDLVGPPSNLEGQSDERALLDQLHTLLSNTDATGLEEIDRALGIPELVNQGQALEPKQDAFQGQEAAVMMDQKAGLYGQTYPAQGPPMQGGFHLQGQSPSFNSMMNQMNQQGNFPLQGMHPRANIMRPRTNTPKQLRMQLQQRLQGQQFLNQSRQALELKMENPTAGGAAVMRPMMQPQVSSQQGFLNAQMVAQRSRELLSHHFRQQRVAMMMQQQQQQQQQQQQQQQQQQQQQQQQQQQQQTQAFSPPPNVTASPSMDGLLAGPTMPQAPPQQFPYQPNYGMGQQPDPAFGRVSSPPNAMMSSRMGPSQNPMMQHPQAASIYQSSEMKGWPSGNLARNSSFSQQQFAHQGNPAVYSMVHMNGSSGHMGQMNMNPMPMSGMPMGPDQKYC
The target of test [2] is Peroxisome proliferator-activated receptor gamma/Nuclear receptor coactivator 1 (Homo sapiens, UniProt P37231). In kind it is functional.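 Note: agonist potency as compounds enhance coactivator SRC-1 recruitment to PPARgamma.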
For test [3], the target named is Peroxisome proliferator-activated receptor gamma/Nuclear receptor coactivator 2 (Homo sapiens, UniProt P37231). Type of test: functional.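 Note: agonist potency for raising coactivator recruitment to the receptor.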
Peroxisome proliferator-activated receptor gamma/Nuclear receptor coactivator 2, sequence (P37231 whole entry): as the sequence (P37231 whole entry) above
Peroxisome proliferator-activated receptor gamma/Nuclear receptor coactivator 2, sequence (Q15596 whole entry, further chain): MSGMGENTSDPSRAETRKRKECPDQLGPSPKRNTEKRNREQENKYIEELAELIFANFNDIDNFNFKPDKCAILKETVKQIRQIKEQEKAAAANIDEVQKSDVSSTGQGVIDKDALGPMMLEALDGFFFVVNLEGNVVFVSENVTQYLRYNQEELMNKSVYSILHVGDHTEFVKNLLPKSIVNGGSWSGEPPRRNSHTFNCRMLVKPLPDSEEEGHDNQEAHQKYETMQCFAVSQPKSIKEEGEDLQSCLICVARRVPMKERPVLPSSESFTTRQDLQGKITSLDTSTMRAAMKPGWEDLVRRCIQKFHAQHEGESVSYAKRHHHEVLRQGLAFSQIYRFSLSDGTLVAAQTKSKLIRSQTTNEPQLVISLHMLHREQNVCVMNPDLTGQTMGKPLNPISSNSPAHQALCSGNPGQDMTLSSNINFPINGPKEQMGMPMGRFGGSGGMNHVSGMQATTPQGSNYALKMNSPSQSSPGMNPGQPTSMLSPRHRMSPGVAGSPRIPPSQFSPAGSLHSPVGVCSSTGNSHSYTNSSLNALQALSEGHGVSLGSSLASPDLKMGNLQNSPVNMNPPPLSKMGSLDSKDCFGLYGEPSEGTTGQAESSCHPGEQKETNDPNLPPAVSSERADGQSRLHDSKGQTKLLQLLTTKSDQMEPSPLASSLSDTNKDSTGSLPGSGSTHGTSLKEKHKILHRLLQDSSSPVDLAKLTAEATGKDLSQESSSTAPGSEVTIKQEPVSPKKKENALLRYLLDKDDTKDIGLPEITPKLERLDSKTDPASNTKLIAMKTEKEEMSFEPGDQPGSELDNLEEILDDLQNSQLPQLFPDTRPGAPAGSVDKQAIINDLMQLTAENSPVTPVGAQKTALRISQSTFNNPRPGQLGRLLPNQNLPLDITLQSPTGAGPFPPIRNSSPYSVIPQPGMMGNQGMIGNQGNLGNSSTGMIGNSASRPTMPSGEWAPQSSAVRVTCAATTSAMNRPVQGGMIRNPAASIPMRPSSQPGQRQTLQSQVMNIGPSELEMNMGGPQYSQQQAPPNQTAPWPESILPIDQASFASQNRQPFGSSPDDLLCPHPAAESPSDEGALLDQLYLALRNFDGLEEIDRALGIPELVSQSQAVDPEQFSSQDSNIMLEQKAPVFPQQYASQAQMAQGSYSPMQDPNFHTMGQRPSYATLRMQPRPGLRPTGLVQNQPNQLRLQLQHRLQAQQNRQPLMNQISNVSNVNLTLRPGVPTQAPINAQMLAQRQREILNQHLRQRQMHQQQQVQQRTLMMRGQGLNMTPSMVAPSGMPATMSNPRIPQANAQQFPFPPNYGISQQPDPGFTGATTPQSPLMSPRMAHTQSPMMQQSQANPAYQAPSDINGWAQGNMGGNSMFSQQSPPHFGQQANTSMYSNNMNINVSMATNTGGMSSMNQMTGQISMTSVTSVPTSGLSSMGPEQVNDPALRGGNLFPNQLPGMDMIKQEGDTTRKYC
The target of a further test is T1, Mucolipin-3 (Homo sapiens, UniProt Q8TDD5).
T1 sequence (Q8TDD5 whole entry): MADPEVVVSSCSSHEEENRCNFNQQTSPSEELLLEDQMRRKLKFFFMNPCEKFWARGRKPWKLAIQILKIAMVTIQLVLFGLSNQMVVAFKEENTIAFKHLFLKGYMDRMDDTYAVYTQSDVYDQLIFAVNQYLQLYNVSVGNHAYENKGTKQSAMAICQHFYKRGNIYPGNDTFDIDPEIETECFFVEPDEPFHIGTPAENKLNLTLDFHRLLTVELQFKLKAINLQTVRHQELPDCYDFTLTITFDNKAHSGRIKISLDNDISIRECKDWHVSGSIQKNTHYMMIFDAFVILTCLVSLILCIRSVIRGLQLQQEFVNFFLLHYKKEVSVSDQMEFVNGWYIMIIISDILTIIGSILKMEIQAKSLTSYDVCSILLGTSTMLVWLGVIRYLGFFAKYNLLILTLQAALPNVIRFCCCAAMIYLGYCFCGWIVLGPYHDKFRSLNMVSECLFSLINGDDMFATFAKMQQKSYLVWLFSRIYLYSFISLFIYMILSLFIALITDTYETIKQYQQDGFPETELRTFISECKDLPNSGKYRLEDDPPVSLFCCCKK
Briefly: Dose response cell-based high-throughput screening assay for agonists of the transient receptor potential channel ML3 (TRPML3). [Related pubchem assays: 1526, 1424, 1448 ]. Type of test: functional.

Another test addresses Ion channel NompC (Danio rerio, UniProt Q7T1G6). Briefly: Fluorescence counterscreen assay for TRPML3 agonists: dose response cell-based high-throughput screening assay to identify agonists of the transient receptor potential channel N1 (TRPN1). [Related pubchem assays: 1526, 1424, 1448 ]. In kind it is functional.
In the next test the target is Cytochrome P450 3A4 (Homo sapiens, UniProt P08684). The settings on record: Potency.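 Note: confirmatory qHTS run detecting inhibitors and substrates of CYP3A4.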
Test [4] deals with T2, Cytochrome P450 2D6 (Homo sapiens, UniProt P10635). Briefly: qHTS Assay for Inhibitors and Substrates of Cytochrome P450 2D6. [Related pubchem assays: 410 ]. The settings on record: read-out: Potency. In kind it is ADME. A general note: In qHTS, concentration-response curves come from the screen itself.
T2 sequence (P10635 whole entry): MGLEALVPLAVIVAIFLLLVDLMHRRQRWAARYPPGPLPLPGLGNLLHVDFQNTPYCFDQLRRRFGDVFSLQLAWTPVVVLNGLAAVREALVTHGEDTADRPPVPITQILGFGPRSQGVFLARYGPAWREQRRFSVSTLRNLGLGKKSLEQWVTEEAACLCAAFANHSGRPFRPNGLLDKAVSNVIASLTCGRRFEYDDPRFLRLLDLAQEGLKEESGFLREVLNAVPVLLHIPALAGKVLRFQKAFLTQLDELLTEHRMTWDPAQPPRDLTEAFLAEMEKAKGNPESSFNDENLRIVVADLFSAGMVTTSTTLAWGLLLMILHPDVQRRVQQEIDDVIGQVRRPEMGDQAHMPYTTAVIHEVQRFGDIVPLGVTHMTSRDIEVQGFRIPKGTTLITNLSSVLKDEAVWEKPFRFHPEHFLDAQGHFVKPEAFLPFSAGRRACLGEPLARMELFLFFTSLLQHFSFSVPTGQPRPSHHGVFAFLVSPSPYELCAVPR
In the next test the target is T3, Aminopeptidase N (Plasmodium falciparum FcB1/Columbia, UniProt O96935).
T3 sequence (O96935 whole entry): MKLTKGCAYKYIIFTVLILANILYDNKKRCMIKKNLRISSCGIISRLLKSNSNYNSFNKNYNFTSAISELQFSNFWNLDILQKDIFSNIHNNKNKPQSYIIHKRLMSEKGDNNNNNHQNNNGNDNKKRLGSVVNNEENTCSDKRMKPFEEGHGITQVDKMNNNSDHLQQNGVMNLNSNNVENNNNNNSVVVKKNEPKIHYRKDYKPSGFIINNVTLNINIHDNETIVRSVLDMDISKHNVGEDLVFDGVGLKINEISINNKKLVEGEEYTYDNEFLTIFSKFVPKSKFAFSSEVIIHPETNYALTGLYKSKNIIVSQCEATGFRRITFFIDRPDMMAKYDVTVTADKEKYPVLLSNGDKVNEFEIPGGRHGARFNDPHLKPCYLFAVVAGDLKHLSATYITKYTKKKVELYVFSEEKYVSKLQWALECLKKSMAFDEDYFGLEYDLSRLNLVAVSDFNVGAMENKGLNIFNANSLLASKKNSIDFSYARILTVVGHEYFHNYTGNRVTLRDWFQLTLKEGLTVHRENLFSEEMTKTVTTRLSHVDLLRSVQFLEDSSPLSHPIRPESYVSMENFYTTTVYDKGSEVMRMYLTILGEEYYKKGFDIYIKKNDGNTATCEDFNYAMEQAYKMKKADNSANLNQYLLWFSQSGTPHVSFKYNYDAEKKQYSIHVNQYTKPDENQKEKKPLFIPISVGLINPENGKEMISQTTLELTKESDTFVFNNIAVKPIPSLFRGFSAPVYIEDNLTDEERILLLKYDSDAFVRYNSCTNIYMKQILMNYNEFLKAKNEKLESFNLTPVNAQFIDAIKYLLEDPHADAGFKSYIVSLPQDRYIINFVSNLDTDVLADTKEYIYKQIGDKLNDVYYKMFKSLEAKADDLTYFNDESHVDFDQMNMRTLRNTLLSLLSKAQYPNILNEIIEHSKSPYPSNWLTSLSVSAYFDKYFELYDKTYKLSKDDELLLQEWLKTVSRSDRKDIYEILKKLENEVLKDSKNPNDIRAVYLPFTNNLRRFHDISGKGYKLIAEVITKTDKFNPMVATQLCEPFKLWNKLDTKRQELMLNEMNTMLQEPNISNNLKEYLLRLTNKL
Put plainly: P. falciparum M1AAP inhibitors, biochemical, fluorogenic H-Leu-NHMec substrate, 1536-well (AID 1445). Details: species or system Plasmodium falciparum 3D7, 3D7.

For test [5], the target named is Polyadenylate-binding protein 1 (Homo sapiens, UniProt P11940). Put plainly: PABP poly(A) RNA binding inhibitors, primary screen, biochemical, fluorescence polarization, uHTS (AID 2014). (In general: Polarisation of emitted light reports the rotation of a fluorescent probe.)
For test [6], the target named is Eukaryotic translation initiation factor 4H (Homo sapiens, UniProt Q15056). Briefly: human eIF4H binding inhibitors, primary screen, translation initiation inhibitor project, biochemical, uHTS, fluorescence polarization (AID 2012).
The target in test [7] is FAD-linked sulfhydryl oxidase ALR (Homo sapiens, UniProt P55789). Briefly: inhibitors of human ALR sulfhydryl oxidase, dose response, biochemical, H2O2 detection, luminescence, cherry-pick (AID 493248).
For test [8], the target named is T4, Estrogen receptor beta (Homo sapiens, UniProt Q92731). Briefly: ERβ–SRC-3 coactivator interaction inhibitors, confirmation, orthogonal assay, biochemical, ELISA, streptavidin-HRP readout (AID 1060).
T4 sequence (Q92731 whole entry): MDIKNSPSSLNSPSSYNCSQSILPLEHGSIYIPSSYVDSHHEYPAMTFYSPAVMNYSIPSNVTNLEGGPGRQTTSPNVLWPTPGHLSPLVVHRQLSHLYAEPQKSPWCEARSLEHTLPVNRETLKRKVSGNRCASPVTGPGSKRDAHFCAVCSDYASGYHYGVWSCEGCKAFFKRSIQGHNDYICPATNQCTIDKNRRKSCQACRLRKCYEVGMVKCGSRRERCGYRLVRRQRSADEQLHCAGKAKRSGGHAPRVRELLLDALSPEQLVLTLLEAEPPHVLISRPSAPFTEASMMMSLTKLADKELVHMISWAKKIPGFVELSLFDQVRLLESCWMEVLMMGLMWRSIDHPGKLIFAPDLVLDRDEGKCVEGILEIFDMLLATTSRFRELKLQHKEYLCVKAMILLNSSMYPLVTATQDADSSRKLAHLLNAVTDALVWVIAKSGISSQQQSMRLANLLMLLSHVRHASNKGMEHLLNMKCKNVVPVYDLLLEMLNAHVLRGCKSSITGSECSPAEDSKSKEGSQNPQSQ
Test [9] concerns the target T4, Estrogen receptor beta.
For a further test, the system named is Streptococcus. Briefly: Group A Streptococcus viability loss, dose response, counter-screen for streptokinase expression inhibitor project, luminescence, BacTiterGlo (AID 1915).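 Note: potency for reduction of bacterial viability or growth.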 Type of test: functional, organism-based.
The target in the next test is T5, Streptokinase A (Streptococcus pyogenes serotype M1, UniProt P10520).
T5 sequence (P10520 whole entry): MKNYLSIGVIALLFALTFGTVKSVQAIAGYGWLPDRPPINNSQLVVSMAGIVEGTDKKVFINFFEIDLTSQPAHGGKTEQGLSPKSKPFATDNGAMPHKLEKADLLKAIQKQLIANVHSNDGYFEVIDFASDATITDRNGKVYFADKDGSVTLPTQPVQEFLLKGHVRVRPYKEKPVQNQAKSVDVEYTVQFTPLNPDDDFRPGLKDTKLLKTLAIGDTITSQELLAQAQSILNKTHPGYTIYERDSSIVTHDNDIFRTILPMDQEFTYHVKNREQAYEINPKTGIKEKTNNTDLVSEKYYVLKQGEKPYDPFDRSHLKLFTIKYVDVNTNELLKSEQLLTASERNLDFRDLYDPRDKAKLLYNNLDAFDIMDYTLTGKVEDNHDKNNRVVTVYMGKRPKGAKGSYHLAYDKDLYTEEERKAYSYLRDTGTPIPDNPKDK
Briefly: S. pyogenes streptokinase expression inhibitors, potency, dose response, plasminogen activation absorbance, OD405 (AID 1914).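 Note: secreted streptokinase activity via plasminogen activation per viability signal from cell pellet.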 Type of test: functional, Streptococcus pyogenes M1 GAS.

Test [10] is described as follows: cytotoxicity toward NIH3T3 fibroblasts, dose response, counter-screen, cell-based, ATP luminescence, mouse fibroblasts (AID 2010).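 Note: cells exposed to compound for about 90 hours before reading.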 Type of test: functional.
A short description of test [11]: inhibitors of intracellular T. cruzi replication, confirmation, NIH3T3 host cells, beta-gal luminescence (AID 2044).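 Note: intracellular parasites grown in NIH/3T3 mouse fibroblasts as host cells; luminescent beta-galactosidase reporter signal from transgenic T. cruzi replicating inside host cells; inhibitors lower the luminescence signal.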 In kind it is functional, cell-based.
In test [12] the test system is Streptococcus sp. 'group A'. Briefly: growth inhibition of control SK(-) GAS strain, dose response, counter-screen for streptokinase expression inhibitor project, luminescence, kanamycin, BacTiterGlo, confirmation (AID 1900). Type of test: functional, organism-based. In general terms: A counterscreen serves to expose hits that act by an unwanted route or on another target.

In test [13] the target is Glucose-6-phosphate 1-dehydrogenase (Homo sapiens, UniProt P11413). Put plainly: human G6PD enzyme inhibitors, dose response, selectivity assay for P. falciparum G6PD inhibitor project, biochemical, fluorescence (AID 504792). Type of test: functional.
For another test, the target named is Large T antigen (Simian virus 40, UniProt P03070). In kind it is functional, Betapolyomavirus macacae.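 Note: Confirmatory-stage PubChem screen for compounds that inhibit SV40 T antigen.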
The next test deals with Cytochrome P450 2C19 (Homo sapiens, UniProt P33261). Put plainly: Cytochrome panel assay with activity outcomes. Panel member name: p450-cyp2c19 Compounds with AC50 equal or less than 10 uM are considered active. Type of test: functional. The settings on record: read-out: AC50.
Test [14] concerns the target T2, Cytochrome P450 2D6.

On to `O=C(Nc1ccc2oc(-c3ccncc3)nc2c1)c1c(F)c(F)c(F)c(F)c1F`, for which the figures for the EC50 in [1], in [2] and in [3] were 28.9 µM (not active), 25.8 µM (not active) and 25.6 µM (not active), respectively.

Take `COc1ccc(S(=O)(=O)NC2CCCCC2)c(C)c1C`: the values for the EC50 at Mucolipin-3 and at Ion channel NompC were > 3.32 µM (not active) and > 29.9 µM (not active), respectively.

Take `Cc1onc(-c2ccccc2)c1C(=O)N(Cc1ccco1)Cc1cccs1`: the EC50 is 12.4 µM (not active) at Mucolipin-3 and > 29.9 µM (not active) at Ion channel NompC.

On to `CC12C=C(/C=C/c3ccccc3)C(C)(C1)C(c1ccccc1)CC2=O` (stereo not drawn), for which the AC50 on Cytochrome P450 3A4 and on Cytochrome P450 2D6 [4] was 3.16 µM (inconclusive) throughout.

With `CC1(c2ccc(OC(F)F)cc2)NC(=O)N(CC(=O)Nc2ccc(S(N)(=O)=O)cc2)C1=O` (stereo not drawn), the IC50 on Aminopeptidase N is 28.3 µM (active).

Turning to `C[N+]1(C)C2CCC1CC(OC(=O)c1ccco1)C2` (stereo not drawn), the IC50 in [5] is 7.77 µM (active); in [6] it was > 100 µM (inactive).

Turning to `O=C1NC(=S)NC(=O)C1=NNc1cc2c(cc1[N+](=O)[O-])OCO2`, on Aminopeptidase N, the IC50 is 26.9 µM (active).

`CCN(CCNS(=O)(=O)c1ccc2nc(O)sc2c1)c1ccccc1`: the AC50 in test [7] was 1.17 µM (active).

Regarding `CC1(C)Cc2cccc(Oc3ccc(S(=O)(=O)N4CCCCC4)cn3)c2O1`, the values for the EC50 on Mucolipin-3 and on Ion channel NompC were 9.27 µM (active) and > 29.9 µM (not active), respectively.

Take `O=C(c1ccco1)N1CCN=C1SCc1cccnc1`: in [7], the AC50 is 1.19 µM (active).

For `Cc1csc(C(C#N)C(=O)c2ccncc2)n1` (stereo not drawn), the IC50 against Estrogen receptor beta [8] is > 109 µM (not active); on Estrogen receptor beta [9] it was 13.9 µM (active). Moreover, the EC50 in test [1], in [2] and in test [3] was > 79.4 µM (not active) each time.

With `CCC(=O)NC(=S)Nc1ccc(NC(=S)NC(=O)c2ccccc2)cc1`, the EC50 was 38 µM (active) in the test on Streptococcus; > 150 µM (not active) on Streptokinase A; > 79.4 µM (not active) in test [1]; > 60 µM (not active) in test [10]; > 79.4 µM (not active) in [2]; 0.553 µM (active) in test [11]. In addition, the EC50 in [3] was > 79.4 µM (not active); in [12] it was 1.23 µM (active).

For the molecule `O=C(CN1CCN(c2ccc(O)cc2)CC1)Nc1cc(S(=O)(=O)N2CCOCC2)ccc1Cl`, the IC50 was > 80 µM (inactive) in test [13], 17 µM (active) on Large T antigen, > 100 µM (inactive) in [5] and 72.2 µM (active) in test [6].

Regarding `O=C(CCCN1CCC2(CC1)C(=O)N(CCc1ccc(N=C=S)cc1)CN2c1ccccc1)c1ccc(F)cc1`, the AC50 at Cytochrome P450 2D6 [4] was 15.8 µM (inconclusive).

As to `Cc1cc2nc3c(=O)[nH]c(=O)nc-3n(CC(O)C(O)C(O)CO)c2cc1C` (stereo not drawn) [RIBOFLAVIN], the AC50 was 6.31 µM (inconclusive) on Cytochrome P450 2C19, 31.6 µM (inconclusive) on Cytochrome P450 2D6 [4] and 12.6 µM (inconclusive) on Cytochrome P450 2D6 [14].
